The values that follow come from PMC7463537, “Synthesis and Evaluation of Antimicrobial and Cytotoxic Activity of Oxathiine-Fused Quinone-Thioglucoside Conjugates of Substituted 1,4-Naphthoquinones” (Molecules, 2020).

Converted amounts (≈) assume the structure as drawn. Read-outs that look alike come from different tables or passages of the source.

In data set [1] the test system is mouse neuroblastoma (Neuro 2a). Kind of data set: Cytotoxicity, MTT assay, Neuro 2a cells. The settings on record: for EC50: 24 h, read-out: Cytotoxicity (EC50), Neuro 2a; for Selectivity Index (SI), Neuro-2a: SI = EC50 (Jb6 Cl 41-5a normal cells)/EC50 (tumor cells). For orientation: Formazan colour is commonly taken as a measure of viable cells.
The nature of data set [2]: Cytotoxicity, statements of the text over all tested cell lines. Conditions: human, mouse.
Data set [3] concerns S. aureus ATCC 21027. Kind of data set: Agar diffusion method, S. aureus. Conditions: Staphylococcus aureus, ATCC21027, 24 h, 100 µg/well, 24 h, incl. 7 mm well; read-out: Diameter of Zone Inhibition, S. aureus. The data set is classed as cell-based, Staphylococcus aureus. On the procedure: (§1) Elyakov Pacific Institute of Bioorganic Chemistry, Far East Branch, Russian Academy of Sciences. Test substances were dissolved in DMSO at concentrations of 1.0, 0.1, and 0.01 mg/mL. All strains were grown on trypticase-soy agar TSA (BBL) at 37 °C. […] After incubation of the dishes at 37 °C for 24 h (for bacteria) and 48 h (for the fungus) at 28 °C, the diameters of the growth inhibition zones of pathogenic microorganisms (mm) were measured, including the diameter of the wells. Commercial antibacterial drugs (vancomicin and gentamicin) and antifungal (clotrimazol) drugs were used as positive controls.

The next data set concerns E. coli K-12. In words: Agar diffusion method, E. coli. The settings on record: Escherichia coli, K12; 100 µg/well; read-out: Diameter of Zone Inhibition, E. coli. In kind it is cell-based, Escherichia coli. Here is the method:
as §1
(In general: A growth-free zone around the sample is the usual read-out of agar diffusion tests.)

The subject of data set [4] is human cervical cancer (HeLa). In words: Cytotoxicity, MTT assay, HeLa cells. The settings on record: for EC50: 24 h, read-out: Cytotoxicity (EC50), HeLa; for Selectivity Index (SI), HeLa: SI = EC50 (Jb6 Cl 41-5a normal cells)/EC50 (tumor cells).
In the next data set the test system is B. cereus ATCC 10702. In words: Agar diffusion method, B. cereus. The data set is classed as cell-based, Bacillus cereus. Also on record: key to Diameter of Zone Inhibition, B. cereus: Zones within 20–40 mm mean strong antibiotic activity; zones up to 20 mm—moderate; ≤10 mm—weak; +—insignificant. Conditions: 100 µg/well, 24 h, incl. 7 mm well; for zone of inhibition at 100 µg/disc: Bacillus cereus, ATCC10702, 24 h, read-out: Diameter of Zone Inhibition, B. cereus. Here is the method: as §1

The next data set has as its system C. albicans KMM 453. Kind of data set: Agar diffusion method, C. albicans. In kind it is cell-based. The settings on record: Candida albicans, KMM453, 48 h, 100 µg/well, 48 h at 28 °C; read-out: Diameter of Zone Inhibition, C. albicans. Here is the method:
as §1

The nature of data set [5]: Cytotoxicity, MTT assay, Jb6 Cl 41-5a normal epithelial cells. The settings on record: mouse, Jb6 Cl 41-5a normal epithelial cells.
In data set [6] the test system is mouse ascites Ehrlich carcinoma. Kind of data set: Cytotoxicity, nonspecific esterase (FDA) assay, ascites Ehrlich carcinoma cells. The settings on record: for EC50: 24 h, read-out: Cytotoxicity (EC50), Ascites Ehrlich Carcinoma; for Selectivity Index (SI), Ascitic Ehrlich Carcinoma: SI = EC50 (Jb6 Cl 41-5a normal cells)/EC50 (tumor cells).
In the next data set the test system is P. aeruginosa ATCC 27853. Kind of data set: Agar diffusion method, P. aeruginosa. The settings on record: for zone of inhibition at 100 µg/disc: Pseudomonas aeruginosa, ATCC27853, 100 µg/well, read-out: Diameter of Zone Inhibition, P. aeruginosa. The data set is classed as cell-based, Pseudomonas aeruginosa. Here is the method:
as §1

In data set [7] the test system is Gram-positive bacteria (S. aureus, B. cereus). Kind of data set: Agar diffusion method, Gram-positive strains. Conditions: Staphylococcus aureus; 100 µg/well; read-out: Antimicrobial activity / inhibition zone diameter, Gram-positive bacteria. The data set is classed as cell-based, Staphylococcus aureus, Bacillus cereus. On the procedure: as §1
A short description of another data set: in vitro. Conditions: mouse.
Data set [8] concerns S. aureus ATCC 21027. Kind of data set: Minimum inhibitory concentration, broth microdilution. In kind it is cell-based, Staphylococcus aureus. The settings on record: for MIC: Staphylococcus aureus, ATCC21027, broth microdilution, 24 h, read-out: Minimum inhibitory concentration (MIC) against S. aureus. Here is the method:
Stocks of substances were prepared in DMSO at a concentration of 10 mM. All studied compounds were tested in concentrations from 1.5 μM to 100 μM using twofold dilution. All tested compounds were add to the wells of the plates in a volume of 20 μL diluted in PBS (DMSO concentration < 1%). The bacterial culture of S. aureus ATCC 21027 (Collection of Marine Microorganisms PIBOC FEB RAS) was cultured in a Petri dish at 37 °C for 24 h on solid medium with the following composition; pepton—5.0 g/L, K2HPO4—0.2 g/L, glucose—1.0 g/L, MgSO4—0.05 g/L, yeast extract—1 g/L, agar—16.0 g/L, and distilled water—1.0 L. The pH of the medium was adjusted to 7.2–7.4 with NaOH solution.
The antimicrobial activity of the compounds was determined by the minimum inhibitory concentration (MIC) according to the method adopted by the Clinical and Laboratory Standards Institute (CLSI). Methods for dilution antimicrobial susceptibility tests for bacteria that grow aerobically followed the approved standard—tenth edition. CLSI document M07-A10, PA: Clinical and Laboratory Standards Institute; 2015, with a slight modification of the medium. The assays were performed in 96-well microplates in appropriate broth (pepton—5.0 g/L, K2HPO4—0.2 g/L, glucose—1.0 g/L, MgSO4—0.05 g/L, yeast extract—1 g/L, casein hydrolyzate—2.5 g/L, distilled water—1L). […] The MIC value is defined as the lowest concentration of compounds resulting in the complete inhibition of bacterial growth by measuring the absorbance at 600 nm with a microplate reader (BioTek, Winooski, Vt, USA). All experiments were performed twice in triplicate. Gentamicin was used as a positive control in concentration 1 mg/mL; 1% DMSO solution in PBS as a negative. The selectivity index for S. aureus has been defined as the ratio of EC50 for normal cells and the MIC value for the bacterial culture (SI = EC50/MIC).
On the technique in general: In broth dilution the organism is exposed to a series of concentrations in liquid medium.

In data set [9] the test system is mouse normal epithelial cell line (JB6 Cl 41-5a). In words: Cytotoxicity, MTT assay, Jb6 Cl 41-5a normal epithelial cells. The settings on record: read-out: Cytotoxicity (EC50), Jb6 Cl 41-5a; MTT reagent, 24 h, non-cancer cells.
Another data set in a line: Solubility in DMSO. The data set is classed as physicochemical. Conditions: did not allow measurement of cytotoxic activity.

For the molecule `O=C1C2=C(S[C@@H]3O[C@H](CO)[C@H](O)[C@H](O)[C@H]3O2)C(=O)c2c(O)cccc21` [Compound 19b, (2R,3R,4S,4aR,12aS)-3,4,10-Trihydroxy-2-hydroxymethyl-3,4,4a,12a-tetrahydro-2H-naphtho[2,3-b]pyrano-[2,3-e][2,5]oxathiine-6,11-dione], the EC50 in data set [1] (N2a) is 2.3 µM; in data set [4] (Homo sapiens, HeLa), 2.7 µM; in data set [6] (Mus musculus, Ehrlich), 0.7 µM. Further, the “Selectivity Index (SI), Neuro-2a” value in data set [1] was 0.4. In addition, the EC50 at 24 h in data set [2] is 0.6 to 0.9 µM; in data set [5] it was 0.9 µM. Also, the zone of inhibition at 100 µg/disc in the data set on S. aureus ATCC 21027 [3] was 0 mm; with E. coli K-12, 0 mm; in the data set with B. cereus ATCC 10702 it was 8 ± 2 mm; in the data set on C. albicans KMM 453, 0 mm; with P. aeruginosa ATCC 27853 it was 0 mm; in data set [7], no more than 10 mm. The “Selectivity Index (SI), HeLa” value in data set [4] stood at 0.3. For the same molecule, the “Selectivity Index (SI), Ascitic Ehrlich Carcinoma” value in data set [6] stood at 1.3.
On to `O=C1C=CC(=O)c2c(O)cccc21` [Juglone, 5-hydroxy-1,4-naphthoquinone, reference compound], for which the EC50 in data set [1] (N2a) is greater than 100 µM; in “in vitro”, greater than 100 µM; in [4] (Homo sapiens, HeLa) it was greater than 100 µM; in data set [6] (Mus musculus, Ehrlich) it was greater than 100 µM. The same molecule yielded an EC50 at 24 h in data set [2] greater than 100 µM. In addition, the zone of inhibition at 100 µg/disc with S. aureus ATCC 21027 [3] was 0 mm; in the data set on E. coli K-12 it was 0 mm; in the data set on B. cereus ATCC 10702, 0 mm; with P. aeruginosa ATCC 27853, less than 20 mm. The MIC in the data set on S. aureus ATCC 21027 [8] is greater than 100 µM. For the same molecule, the “Diameter of Zone Inhibition, P. aeruginosa” value in the data set on P. aeruginosa ATCC 27853 (100 µg/well) amounted to 12 ± 2 mm.
As for `C=C(C)CCCC1(C)OC(=O)C23CCC4C(=CCC5C(C)(C)C(OC6OCC(OS(=O)(=O)O)C(O)C6OC6OC(C)C(OC7OC(CO)C(O)C(OC8OC(CO)C(O)C(OC)C8O)C7O)C(O)C6OC6OCC(O)C(O)C6O)CCC45C)C2(C)CC(=O)C13` (centres unmarked) [Cucumarioside A2-2, reference compound], the EC50 came out at 37.5 µM in data set [1] (MTT reagent), 42.4 µM in [4] (MTT reagent), 15.1 µM in data set [9] and 18.5 µM in data set [6] (FDA).
For the molecule `COc1ccc(OC)c2c1C(=O)C1=C(S[C@@H]3O[C@H](CO)[C@H](O)[C@H](O)[C@H]3O1)C2=O` [Compound 17b, (2R,3R,4S,4aR,12aS)-3,4-Dihydroxy-2-hydroxymethyl-7,10-dimethoxy-3,4,4a,12a-tetrahydro-2H-naphtho[2,3-b]pyrano[2,3-e][2,5]oxathiine-6,11-dione], the melting point is greater than 350 °C. Further, the “Solubility in DMSO” value in “Solubility in DMSO” was “poor solubility”. Further, the zone of inhibition at 100 µg/disc in the data set on S. aureus ATCC 21027 [3] was determined as 0 mm. Besides, the zone of inhibition at 100 µg/disc with E. coli K-12 worked out at 0 mm. Besides, the “Diameter of Zone Inhibition, B. cereus” value with B. cereus ATCC 10702 is listed as “+”. For the same molecule, the zone of inhibition at 100 µg/disc in the data set on C. albicans KMM 453 came out at 0 mm. Further, the zone of inhibition at 100 µg/disc in the data set on P. aeruginosa ATCC 27853 was determined as 0 mm.
`O=C1C2=C(S[C@@H]3OC[C@H](O)[C@H](O)[C@H]3O2)C(=O)c2c(O)cccc21` [Compound 19d, (3S,4S,4aR,12aS)-3,4,10-Trihydroxy-3,4,4a,12a-tetrahydro-2H-naphtho[2,3-b]pyrano[2,3-e][2,5]oxathiine-6,11-dione]: the melting point fell in the range of 319 to 321 °C. Further, the EC50 in data set [1] (N2a) is 2.2 µM. The “Selectivity Index (SI), Neuro-2a” value in [1] was found to be 1. Also, the zone of inhibition at 100 µg/disc with S. aureus ATCC 21027 [3] amounted to 20 ± 3 mm. For the same molecule, the zone of inhibition at 100 µg/disc with E. coli K-12 worked out at 0 mm. Moreover, the EC50 in data set [4] (Homo sapiens, HeLa) was found to be 1.3 µM. Also, in [4], the “Selectivity Index (SI), HeLa” value is given as 1.8. For the same molecule, the zone of inhibition at 100 µg/disc in the data set on B. cereus ATCC 10702 was determined as 25 ± 2 mm. Further, in the data set on C. albicans KMM 453, the zone of inhibition at 100 µg/disc is 0 mm. In addition, in the data set with S. aureus ATCC 21027 [8] (SI = EC50 (normal Jb6 Cl 41-5a cells)/MIC), the “Selectivity index (SI) against S. aureus” value is on record as 0.4. For the same molecule, the MIC with S. aureus ATCC 21027 [8] worked out at 6.25 µM (≈ 2.1 µg/mL). In addition, the EC50 at 24 h in [5] is 2.3 µM. Also, the EC50 in data set [6] (Mus musculus, Ehrlich) stood at 1.1 µM. The “Selectivity Index (SI), Ascitic Ehrlich Carcinoma” value in data set [6] worked out at 2.1. The zone of inhibition at 100 µg/disc in the data set with P. aeruginosa ATCC 27853 is 0 mm. Also, in data set [7], the zone of inhibition at 100 µg/disc was in the range of 20 to 40 mm.
Turning to `O=C1C2=C(S[C@@H]3O[C@H](CO)[C@@H](O)[C@H](O)[C@H]3O2)C(=O)c2c(O)cccc21` [Compound 19a, (2R,3S,4S,4aR,12aS)-3,4,10-Trihydroxy-2-hydroxymethyl-3,4,4a,12a-tetrahydro-2H-naphtho[2,3-b]pyrano[2,3-e][2,5]oxathiine-6,11-dione], the EC50 came out at 4.1 µM in [1] (N2a); 3.7 µM in [4] (Homo sapiens, HeLa); 0.6 µM in data set [6] (Mus musculus, Ehrlich). For the same molecule, the “Selectivity Index (SI), Neuro-2a” value in data set [1] is 1.4. Besides, the EC50 at 24 h in data set [2] is 0.6 to 0.9 µM; in [5], 5.6 µM. The zone of inhibition at 100 µg/disc in the data set with S. aureus ATCC 21027 [3], in the data set on E. coli K-12, with B. cereus ATCC 10702, in the data set with C. albicans KMM 453 and with P. aeruginosa ATCC 27853 was 0 mm in each case. The “Selectivity Index (SI), HeLa” value in [4] stood at 1.5. Besides, the “Selectivity Index (SI), Ascitic Ehrlich Carcinoma” value in data set [6] worked out at 9.3.

As a reminder, the EC50 is the concentration giving half of the maximal effect. What is called melting point is the temperature, or range, at which the solid turns liquid.
